Measured values from PubChem BioAssay AID1259408 (Genetic Toxicology Data Bank (GENE-TOX), 2018).
The source made the active and inactive calls. The rule behind the calls is not given here.

Test system: GENE-TOX genotoxicity assays, various organisms and cells
Test: GENE-TOX mutagenicity studies
Conditions: for call: Assay Type: In vivo carcinogenicity studies
[1] = Species/Cell Type: Salmonella typhimurium (one or more of the five standard strains: TA98, TA100, TA1535, TA1537, and TA1538), Assay Type: Histidine reverse gene mutation, Ames assay, Assay Code: SAL+, Evaluation Type: Evaluation A (Pre-1980)
[2] = Species/Cell Type: Salmonella typhimurium (one or more of the five standard strains: TA98, TA100, TA1535, TA1537, and TA1538), Assay Type: Histidine reverse gene mutation, Ames assay, Assay Code: SALT, Evaluation Type: Evaluation A (Pre-1980)
[3] = Species/Cell Type: Neurospora crassa, Assay Type: Forward gene mutation, Assay Code: NEF+, Evaluation Type: Evaluation A (Pre-1980)
[4] = Species/Cell Type: Saccharomyces cerevisiae, Assay Type: Mitotic recombination or gene conversion, Assay Code: YEC+, Evaluation Type: Evaluation A (Pre-1980)
[5] = Species/Cell Type: Mammalian polychromatic erythrocytes, Assay Type: Micronucleus test, chromosome aberrations, Assay Code: MNT+, Evaluation Type: Evaluation B (Post-1980)
[6] = Species/Cell Type: Salmonella typhimurium (one or more of the five standard strains: TA98, TA100, TA1535, TA1537, and TA1538), Assay Type: Histidine reverse gene mutation, Ames assay, Assay Code: SAL+*, Activation: With metabolic activation, Evaluation Type: Evaluation A (Pre-1980)
[7] = Species/Cell Type: Mouse, Sex: Male, Assay Type: Sperm morphology, Assay Code: SPI-, Evaluation Type: Evaluation A (Pre-1980)
[8] = Species/Cell Type: Nonhuman, Assay Type: Sister-chromatid exchange (SCE) in vitro, Assay Code: SC2T, Evaluation Type: Evaluation B (Post-1980)
[9] = Species/Cell Type: Drosophila melanogaster, Assay Type: Sex-linked recessive lethal gene mutation, Assay Code: SRL+, Evaluation Type: Evaluation A (Pre-1980)
[10] = Species/Cell Type: Mammalian polychromatic erythrocytes, Assay Type: Micronucleus test, chromosome aberrations, Assay Code: MNTT, Evaluation Type: Evaluation B (Post-1980)
[11] = Species/Cell Type: Drosophila melanogaster, Assay Type: Sex-linked recessive lethal gene mutation, Assay Code: SRL-, Evaluation Type: Evaluation A (Pre-1980)
[12] = Species/Cell Type: Human diploid fibroblasts, Assay Type: Unscheduled DNA synthesis (UDS) in vitro, DNA effects, Assay Code: UDH-, Evaluation Type: Evaluation A (Pre-1980)

For `CCN(CC)CCn1c2ccc(CO)c3c2c([n+]1[O-])-c1ccc(Cl)cc1S3`, the mutagenic call [1] was “active; positive”, the mutagenic call [2] was “no conclusion” and the mutagenic call (Species/Cell Type: Salmonella typhimurium, Assay Type: Forward and reverse gene mutation, body fluid assay, Assay Code: BFU+, Evaluation Type: Evaluation A (Pre-1980)) was “active; positive”. For the same molecule, the mutagenic call (Species/Cell Type: Salmonella typhimurium, Assay Type: Forward and reverse gene mutation, host-mediated assay, Assay Code: HMA+, Evaluation Type: Evaluation A (Pre-1980)) was “active; positive”.
For `CN(N=O)C(=O)Nc1nc2ccccc2s1`, the mutagenic call [3] was “active; positive” and the mutagenic call [4] was “active; positive”.
For `O=C(Cn1ccnc1[N+](=O)[O-])NCc1ccccc1`, the mutagenic call [5] was “active; positive”.
`COc1ccc2c(ccc3c4c(ccc32)C(C)=CC4)c1` was tested, and the mutagenic call [6] was “active; positive”.
With `O=c1[nH]c(=O)n([C@H]2C[C@H](O)[C@@H](CO)O2)cc1/C=C/C(F)(F)F` the mutagenic call (Species/Cell Type: Human, Assay Type: Sister-chromatid exchange (SCE) in vitro, Assay Code: SC1+D, Dose Response: With dose response, Evaluation Type: Evaluation B (Post-1980)) was “active; positive”.
`CC1=C(/C=C/C(C)=C/C=C/C(C)=C/CO)C(C)(C)CCC1` was tested, and the mutagenic call [7] was “inactive; negative” and the mutagenic call [8] was “no conclusion”.
In the case of `[Cl][Sb]([Cl])[Cl]`, the mutagenic call (Species/Cell Type: Bacillus subtilis (H17 vs M45), Assay Type: Rec-assay, spot test, DNA effects (bacterial DNA repair), Assay Code: REW+, Evaluation Type: Evaluation A (Pre-1980)) is reported as “active; positive”.
With `CCOCC` the mutagenic call (Species/Cell Type: Aspergillus nidulans, Assay Type: Forward gene mutation, Assay Code: ASF-, Evaluation Type: Evaluation A (Pre-1980)) was “inactive; negative”, the mutagenic call (Species/Cell Type: Escherichia coli polA (W3119 vs P3478), Assay Type: Rec-assay, DNA effects (bacterial DNA repair), Assay Code: RE1+, Evaluation Type: Evaluation A (Pre-1980)) was “active; positive” and the mutagenic call [7] was “inactive; negative”. The mutagenic call [8] was “no conclusion” and the mutagenic call [2] was “no conclusion”.
`CCCCOc1ccc2nc3cc(Cl)ccc3c(NCCCNCCCl)c2n1` was tested, and the mutagenic call (Species/Cell Type: Chinese hamster ovary (CHO) cells, Assay Type: Forward gene mutation at the HPRT locus, Assay Code: CHO+, Evaluation Type: Evaluation B (Post-1980)) was “active; positive”.
`CN(C)CCOc1ccc2c(c1)CC/C(=C\c1ncc([N+](=O)[O-])n1C)C2=O` was tested, and the mutagenic call [9] was “active; positive” and the mutagenic call [4] was “active; positive”.
In the case of `Cc1cc(=O)[nH]c(=S)[nH]1`, the call (Species/Cell Type: Nonhuman, Assay Code: CCG+, Evaluation Type: Evaluation A (Pre-1980)) is reported as “active; positive”.
For `Nc1nc(N)c2nc(CNc3ccc(C(=O)N[C@@H](CCC(=O)O)C(=O)O)cc3)cnc2n1`, the mutagenic call (Species/Cell Type: Mammalian polychromatic erythrocytes, Assay Type: Micronucleus test, chromosome aberrations, Assay Code: MNT+, Evaluation Type: Evaluation A (Pre-1980)) was “active; positive”, the mutagenic call (Species/Cell Type: Mouse, Sex: Male, Assay Type: Sperm morphology, Assay Code: SPI+, Evaluation Type: Evaluation A (Pre-1980)) was “active; positive” and the mutagenic call (Species/Cell Type: Neurospora crassa, Assay Type: Aneuploidy, chromosome aberrations, Assay Code: NEN-, Evaluation Type: Evaluation A (Pre-1980)) was “inactive; negative”. The mutagenic call (Species/Cell Type: Saccharomyces cerevisiae, Assay Type: Mitotic recombination or gene conversion, Assay Code: YEH+, Evaluation Type: Evaluation A (Pre-1980)) was “active; positive”.
For `CN(C)c1ccc(C#N)cc1`, the mutagenic call [10] was “no conclusion”.
`CCN(CC)CCn1nc2c3c(c(C)ccc31)Sc1cc(Cl)ccc1-2` was tested, and the mutagenic call [11] was “inactive; negative”, the mutagenic call (Species/Cell Type: Mouse lymphoma (L5178Y) cells, Assay Type: Forward gene mutation at the thymidine kinase (TK) locus, chromosome aberrations, Assay Code: L51+, Evaluation Type: Evaluation A (Pre-1980)) was “active; positive” and the mutagenic call [3] was “active; positive”. For the same molecule, the mutagenic call [6] was “active; positive”.
With `Nc1nc(-c2ccc([N+](=O)[O-])o2)cs1` the mutagenic call (Species/Cell Type: Escherichia coli WP2, Assay Type: Tryptophan reverse gene mutation, Assay Code: WP2+, Evaluation Type: Evaluation A (Pre-1980)) was “active; positive”, the mutagenic call (Species/Cell Type: Escherichia coli WP2 UVRA, Assay Type: Tryptophan reverse gene mutation, Assay Code: WPU-, Evaluation Type: Evaluation A (Pre-1980)) was “inactive; negative” and the mutagenic call (Species/Cell Type: Nonhuman, Assay Type: Sister-chromatid exchange (SCE) in vitro, Assay Code: SC2+D, Dose Response: With dose response, Evaluation Type: Evaluation B (Post-1980)) was “active; positive”. The mutagenic call [1] was “active; positive”.
With `OCN1CCN(CO)C1=S` the mutagenic call [10] was “no conclusion”.
`O/C=C/Cc1ccc2c(c1)OCO2` was tested, and the mutagenic call (Species/Cell Type: Human diploid fibroblasts, Assay Type: Unscheduled DNA synthesis (UDS) in vitro, DNA effects, Assay Code: UDH+, Evaluation Type: Evaluation A (Pre-1980)) was “active; positive”.
For `CCCCCCCCO`, the mutagenic call [8] was “no conclusion”.
With `CN1CCN(CCCN2c3ccccc3Sc3ccc(C(F)(F)F)cc32)CC1` the mutagenic call (Species/Cell Type: Hordeum vulgare (barley), Assay Type: Chromosome aberrations, Assay Code: HOC+, Evaluation Type: Evaluation A (Pre-1980)) was “active; positive” and the mutagenic call [5] was “active; positive”.
In the case of `CCOC(=O)/C=C(C)/C=C/C=C(C)/C=C/c1c(C)cc(OC)c(C)c1C`, the mutagenic call (Species/Cell Type: Human, Assay Type: Sister-chromatid exchange (SCE) in vitro, Assay Code: SC1+D, Dose Response: With dose response, Evaluation Type: Evaluation A (Pre-1980)) is reported as “active; positive”, the mutagenic call [10] is reported as “no conclusion” and the mutagenic call [8] is reported as “no conclusion”.
For `C/C=C1/C[C@@H](C)[C@](O)(CO)C(=O)OCC2=CC[N+]3([O-])CC[C@@H](OC1=O)[C@@H]23` (stereo partly specified), the mutagenic call (Species/Cell Type: Drosophila melanogaster, Assay Type: Sex-linked recessive lethal gene mutation, Assay Code: SRLT, Evaluation Type: Evaluation A (Pre-1980)) was “no conclusion”.
`Cc1c2c(c(C)c3c1ccc1ccccc13)[C@H](O)[C@@H](O)C=C2` was tested, and the call (Species/Cell Type: Nonhuman, Assay Code: CCGT, Evaluation Type: Evaluation A (Pre-1980)) was “no conclusion”.
For `O=c1[nH]c(Cl)c(Cl)cc1Cl`, the mutagenic call [8] was “no conclusion” and the mutagenic call (Species/Cell Type: Nonhuman, Assay Type: Sister-chromatid exchange (SCE) in vivo, Assay Code: SC3-, Evaluation Type: Evaluation B (Post-1980)) was “inactive; negative”.
With `CNC(=O)O/N=C(\C)SC` the mutagenic call (Species/Cell Type: Bacillus subtilis (H17 vs M45), Assay Type: Rec-assay, spot test, DNA effects (bacterial DNA repair), Assay Code: REWT, Evaluation Type: Evaluation A (Pre-1980)) was “no conclusion”, the mutagenic call [11] was “inactive; negative” and the mutagenic call (Species/Cell Type: Escherichia coli WP2 UVRA, Assay Type: Tryptophan reverse gene mutation, Assay Code: WPU-*, Activation: With metabolic activation, Evaluation Type: Evaluation A (Pre-1980)) was “inactive; negative”. For the same molecule, the mutagenic call (Species/Cell Type: Escherichia coli polA (W3119 vs P3478), Assay Type: Rec-assay, DNA effects (bacterial DNA repair), Assay Code: RE1T, Evaluation Type: Evaluation A (Pre-1980)) was “no conclusion”, the mutagenic call [12] was “inactive; negative” and the mutagenic call (Species/Cell Type: Saccharomyces cerevisiae, Assay Type: Mitotic recombination or gene conversion, Assay Code: YEH-, Evaluation Type: Evaluation A (Pre-1980)) was “inactive; negative”. The mutagenic call [2] was “no conclusion”.
In the case of `CN(C)c1nc(N(C)C)nc(N(C)C)n1`, the mutagenic call [9] is reported as “active; positive”.
For `CCCCCc1cc(OC(=O)CCCN2CCOCC2)c2c(c1)OC(C)(C)[C@@H]1CCC(C)=C[C@@H]21`, the mutagenic call [12] was “inactive; negative”.
With `O=C(O)c1ccc2ccccc2n1` the mutagenic call [2] was “no conclusion”.
